From US8716246B2, “Azuvirin peptides” (The Regents of the University of California, priority 2011, dated 2014)
Like-named read-outs stand apart in the source and are kept apart here. Bridge positions count the residues as written; N and C are the ends. Square brackets hold non-standard residues; d marks the D form. Peptide text beside a SMILES is read from it. * marks the point of attachment. Oic = O=C(O)[C@@H]1C[C@@H]2CCCC[C@@H]2N1; Cha = N[C@@H](CC1CCCCC1)C(=O)O; Tle = CC(C)(C)[C@H](N)C(=O)O; Nicotinoyl = O=C(c1cccnc1)*

Legend:
[1] = biological target: rhEphB2/Fc (Homo sapiens, UniProt P29323); assay: SPR binding to immobilized rhEphB2/Fc (Biacore 3000); parameters: Fc; purchased R&D Systems, Inc., Minneapolis, Minn
Procedure: (§1) Binding to selected ephrin receptors was measured by surface plasmon resonance on a Biacore3000 instrument. Commercially available ephrin receptors: EphA2, EphB2 and EphB4 (R&D Systems) were immobilized on a CM-5 chip by amine coupling and tested peptides were passed over a chip surface as analytes.
(§2) Binding studies. Binding studies were performed by surface plasmon resonance (SPR) on a BIAcore 3000 system (BiaCore AB, Piscataway, N.J.). BIAcore CM5 sensor chips were utilized in all experiments. Binding studies were performed in HBS-EP running buffer (pH=7.4) containing 10 mM HEPES, 150 mM NaCl, 3 mM EDTA, and 0.005% polysorbate 20. Commercially available ephrin receptors: EphA2, EphB2 and EphB4 (R&D Systems, Inc., Minneapolis, Minn.) were immobilized on a CM5 sensor chip using the amine coupling method. The chip was activated by mixing 400 mM N-ethyl-N-(3-dimethylaminopropyl)-carbodiimide hydrochloride and 100 mM N-hydroxysuccinimide. Residual reactive groups on the chip surface were blocked using 1.0 M ethanolamine/HCl (pH=8.5). The flow cell-1 chip, which served as a control, lacked immobilized protein but was treated with N-ethyl-N-(3-dimethylaminopropyl)-carbodiimide hydrochloride, N hydroxysuccinimide, and ethanolamine/HCl. Binding signals were corrected for nonspecific binding by subtracting the flow cell-1 signal (blank surface). To regenerate chip surfaces, bound ligands were removed with 10 mM HCl. Data were analyzed with BIAevaluation 4.1 software (Biacore, Piscataway, N.J.).

[2] = biological target: rhEphA2 (Homo sapiens, UniProt P29317); assay: SPR binding to immobilized rhEphA2 (Biacore 3000); parameters: purchased R&D Systems, Inc., Minneapolis, Minn
Procedure: as §1, §2

[3] = biological target: T1, rhEphB4 (Homo sapiens, UniProt P54760); assay: SPR binding to immobilized rhEphB4 (Biacore 3000)
T1 construct: purchased R&D Systems, Inc., Minneapolis, Minn
T1 sequence (P54760 16-987): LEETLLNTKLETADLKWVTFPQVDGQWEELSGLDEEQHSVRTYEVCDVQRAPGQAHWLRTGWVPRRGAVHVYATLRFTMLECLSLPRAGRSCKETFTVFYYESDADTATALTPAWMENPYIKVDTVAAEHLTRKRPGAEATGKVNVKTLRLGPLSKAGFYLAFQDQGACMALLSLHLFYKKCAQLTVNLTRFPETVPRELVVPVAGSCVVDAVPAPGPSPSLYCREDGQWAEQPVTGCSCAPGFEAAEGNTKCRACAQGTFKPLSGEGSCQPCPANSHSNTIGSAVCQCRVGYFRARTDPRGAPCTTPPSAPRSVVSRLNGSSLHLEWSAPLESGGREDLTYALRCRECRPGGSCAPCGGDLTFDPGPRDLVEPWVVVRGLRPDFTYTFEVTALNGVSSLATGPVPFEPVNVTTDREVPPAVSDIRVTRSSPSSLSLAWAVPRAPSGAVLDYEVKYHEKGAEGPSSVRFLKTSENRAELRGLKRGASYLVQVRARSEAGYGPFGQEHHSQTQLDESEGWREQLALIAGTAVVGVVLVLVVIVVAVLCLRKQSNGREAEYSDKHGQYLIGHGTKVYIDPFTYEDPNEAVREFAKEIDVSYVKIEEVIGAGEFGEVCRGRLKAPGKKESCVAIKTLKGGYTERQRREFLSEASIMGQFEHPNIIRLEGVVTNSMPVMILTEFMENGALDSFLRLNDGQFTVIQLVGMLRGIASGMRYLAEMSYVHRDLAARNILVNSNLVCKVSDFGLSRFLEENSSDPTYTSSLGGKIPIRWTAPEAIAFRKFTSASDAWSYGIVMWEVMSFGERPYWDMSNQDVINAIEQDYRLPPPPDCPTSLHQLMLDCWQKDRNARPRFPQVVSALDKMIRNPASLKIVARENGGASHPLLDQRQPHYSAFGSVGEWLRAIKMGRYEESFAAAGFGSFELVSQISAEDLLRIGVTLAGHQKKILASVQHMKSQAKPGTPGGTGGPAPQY
Procedure: as §1, §2

| SMILES | Kd ([1]; SPR, averaged from at least 4 independent experiments, read-out: KD ± SEM, rhEphB2/Fc) [nM] | Kd ([2]; SPR, averaged from at least 4 independent experiments, read-out: KD ± SEM, rhEphA2) [nM] | Kd ([3]; SPR, averaged from at least 4 independent experiments, read-out: KD ± SEM, rhEphB4) [nM] | Kd [1] [nM] | Kd [2] [nM] | Kd [3] [nM] |
| --- | --- | --- | --- | --- | --- | --- |
| C[C@@H](O)[C@@H]1NC(=O)[C@H](CCCNC(=N)N)NC(=O)[C@H](Cc2c[nH]cn2)NC(=O)CNC(=O)[C@@H]2C[C@@H]3CCCC[C@@H]3N2C(=O)[C@H](CC2CCCCC2)NC(=O)[C@H](C(C)(C)C)NC(=O)[C@@H](NC(=O)[C@H](CC2CCCCC2)NC(=O)[C@H](CC2CCCCC2)NC(=O)[C@H](CCCCN)NC(=O)[C@@H](N)Cc2ccc(O)cc2)CSSC[C@@H](C(=O)N[C@@H](CCCCN)C(N)=O)NC(=O)[C@H](CC2CCCCC2)NC1=O [AzV31] (H-YK[Cha][Cha]C[Tle][Cha][Oic]GHRT[Cha]CK-NH2; disulfide 5-14; N-terminus assumed) | 192 ± 24 | 196 ± 25 | 146 ± 14 | – | – | – |
| C[C@@H](O)[C@@H]1NC(=O)[C@H](CCCNC(=N)N)NC(=O)[C@H](Cc2c[nH]cn2)NC(=O)[C@@H](CCCNC(=N)N)NC(=O)[C@@H]2C[C@@H]3CCCC[C@@H]3N2C(=O)[C@H](CC2CCCCC2)NC(=O)[C@H](C(C)(C)C)NC(=O)[C@@H](NC(=O)[C@H](CC2CCCCC2)NC(=O)[C@H](CC2CCCCC2)NC(=O)[C@H](CCCCN)NC(=O)[C@@H](N)Cc2ccc(O)cc2)CSSC[C@@H](C(=O)N[C@H](CCCCN)C(N)=O)NC(=O)[C@H](CC2CCCCC2)NC1=O [AzV32] (H-YK[Cha][Cha]C[Tle][Cha][Oic][dR]HRT[Cha]C[dK]-NH2; disulfide 5-14) | – | – | – | 471 ± 160 | 169 ± 29 | 197 ± 90 |
| C[C@@H](O)[C@@H]1NC(=O)[C@H](CCCNC(=N)N)NC(=O)[C@H](Cc2c[nH]cn2)NC(=O)CNC(=O)[C@@H]2C[C@@H]3CCCC[C@@H]3N2C(=O)[C@H](CC2CCCCC2)NC(=O)[C@@H](CCCNC(=N)N)NC(=O)[C@@H](NC(=O)[C@H](CC2CCCCC2)NC(=O)[C@H](CC2CCCCC2)NC(=O)[C@H](CCCCN)NC(=O)[C@@H](N)Cc2ccc(O)cc2)CSSC[C@@H](C(=O)N[C@H](CCCCN)C(N)=O)NC(=O)[C@H](CC2CCCCC2)NC1=O [AzV33] (H-YK[Cha][Cha]C[dR][Cha][Oic]GHRT[Cha]C[dK]-NH2; disulfide 5-14) | – | – | – | 106 ± 12 | 100 ± 21 | 78.6 ± 4.5 |
| C[C@@H](O)[C@@H]1NC(=O)[C@H](CCCNC(=N)N)NC(=O)[C@H](Cc2c[nH]cn2)NC(=O)CNC(=O)[C@@H]2C[C@@H]3CCCC[C@@H]3N2C(=O)[C@H](CC2CCCCC2)NC(=O)[C@H](C(C)(C)C)NC(=O)[C@@H](NC(=O)[C@H](CC2CCCCC2)NC(=O)[C@H](CC2CCCCC2)NC(=O)[C@@H](CCCCN)NC(=O)[C@@H](N)Cc2ccc(O)cc2)CSSC[C@@H](C(=O)N[C@H](CCCCN)C(N)=O)NC(=O)[C@H](CC2CCCCC2)NC1=O [AzV34] (H-Y[dK][Cha][Cha]C[Tle][Cha][Oic]GHRT[Cha]C[dK]-NH2; disulfide 5-14) | – | – | – | 189 ± 21 | 196 ± 21 | 135 ± 21 |
| C[C@@H](O)[C@@H]1NC(=O)[C@H](CCCNC(=N)N)NC(=O)[C@H](Cc2c[nH]cn2)NC(=O)[C@@H](CCCNC(=N)N)NC(=O)[C@@H]2C[C@@H]3CCCC[C@@H]3N2C(=O)[C@H](CC2CCCCC2)NC(=O)[C@@H](CCCNC(=N)N)NC(=O)[C@@H](NC(=O)[C@H](CC2CCCCC2)NC(=O)[C@H](CC2CCCCC2)NC(=O)[C@H](CCCCN)NC(=O)[C@@H](N)Cc2ccc(O)cc2)CSSC[C@@H](C(=O)N[C@H](CCCCN)C(N)=O)NC(=O)[C@H](CC2CCCCC2)NC1=O [AzV35] (H-YK[Cha][Cha]C[dR][Cha][Oic][dR]HRT[Cha]C[dK]-NH2; disulfide 5-14) | – | – | – | 147 ± 19 | 126 ± 22 | 73.5 ± 3.7 |
| C[C@@H](O)[C@@H]1NC(=O)[C@H](CCCNC(=N)N)NC(=O)[C@H](Cc2c[nH]cn2)NC(=O)[C@@H](CCCNC(=N)N)NC(=O)[C@@H]2C[C@@H]3CCCC[C@@H]3N2C(=O)[C@H](CC2CCCCC2)NC(=O)[C@H](C(C)(C)C)NC(=O)[C@@H](NC(=O)[C@H](CC2CCCCC2)NC(=O)[C@H](CC2CCCCC2)NC(=O)[C@@H](CCCCNC(=O)c2cccnc2)NC(=O)[C@@H](N)Cc2ccc(O)cc2)CSSC[C@@H](C(=O)N[C@H](CCCCN)C(N)=O)NC(=O)[C@H](CC2CCCCC2)NC1=O [AzV36-Nic, YkNic-Cha-Cha-Cys-Tle-Cha-Oic-rHRT-Cha-Cys-k-CONH] (H-Y[dK](Nicotinoyl)[Cha][Cha]C[Tle][Cha][Oic][dR]HRT[Cha]C[dK]-NH2; disulfide 5-14) | – | – | – | 251 ± 120 | 425 ± 226 | 138 ± 41 |
| C[C@@H](O)[C@@H]1NC(=O)[C@H](CCCNC(=N)N)NC(=O)[C@H](Cc2c[nH]cn2)NC(=O)CNC(=O)[C@@H]2C[C@@H]3CCCC[C@@H]3N2C(=O)[C@H](CC2CCCCC2)NC(=O)[C@@H](CCCNC(=N)N)NC(=O)[C@@H](NC(=O)[C@H](CC2CCCCC2)NC(=O)[C@H](CC2CCCCC2)NC(=O)[C@@H](CCCCN)NC(=O)[C@@H](N)Cc2ccc(O)cc2)CSSC[C@@H](C(=O)N[C@H](CCCCN)C(N)=O)NC(=O)[C@H](CC2CCCCC2)NC1=O [AzV37] (H-Y[dK][Cha][Cha]C[dR][Cha][Oic]GHRT[Cha]C[dK]-NH2; disulfide 5-14) | – | – | – | 143 ± 37 | 152 ± 38 | 76 ± 14 |
| C[C@@H](O)[C@@H]1NC(=O)[C@H](CCCNC(=N)N)NC(=O)[C@H](Cc2c[nH]cn2)NC(=O)[C@@H](CCCNC(=N)N)NC(=O)[C@@H]2C[C@@H]3CCCC[C@@H]3N2C(=O)[C@H](CC2CCCCC2)NC(=O)[C@@H](CCCNC(=N)N)NC(=O)[C@@H](NC(=O)[C@H](CC2CCCCC2)NC(=O)[C@H](CC2CCCCC2)NC(=O)[C@@H](CCCCN)NC(=O)[C@@H](N)Cc2ccc(O)cc2)CSSC[C@@H](C(=O)N[C@H](CCCCN)C(N)=O)NC(=O)[C@H](CC2CCCCC2)NC1=O [AzV38] (H-Y[dK][Cha][Cha]C[dR][Cha][Oic][dR]HRT[Cha]C[dK]-NH2; disulfide 5-14) | – | – | – | 101 ± 2.7 | 109 ± 3.5 | 46.3 ± 3.8 |
